Earlier results, collected in PMC3691235, “Discovery of a Novel Dual Fungal CYP51/Human 5-Lipoxygenase Inhibitor: Implications for Anti-Fungal Therapy” (PLoS ONE, 2013).

Target: T1, Homo sapiens CYP51 (HsCYP51) (Homo sapiens, UniProt Q16850)
T1 construct: made in house; host or cells: E. coli
T1 sequence (Q16850 1-509): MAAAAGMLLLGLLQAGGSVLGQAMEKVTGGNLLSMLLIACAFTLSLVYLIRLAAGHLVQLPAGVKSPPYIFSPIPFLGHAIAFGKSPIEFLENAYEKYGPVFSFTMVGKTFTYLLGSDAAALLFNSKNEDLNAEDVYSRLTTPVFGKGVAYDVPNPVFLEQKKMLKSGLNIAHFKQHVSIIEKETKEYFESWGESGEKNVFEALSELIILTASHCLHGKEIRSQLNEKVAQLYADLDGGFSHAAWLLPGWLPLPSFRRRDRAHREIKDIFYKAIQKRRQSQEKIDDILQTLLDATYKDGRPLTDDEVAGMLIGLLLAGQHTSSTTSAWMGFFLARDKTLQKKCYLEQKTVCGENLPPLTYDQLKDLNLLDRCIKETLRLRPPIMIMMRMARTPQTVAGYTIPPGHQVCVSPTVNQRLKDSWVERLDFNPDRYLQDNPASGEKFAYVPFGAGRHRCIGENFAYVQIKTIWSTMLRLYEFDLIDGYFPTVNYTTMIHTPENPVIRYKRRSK
Design: method as in PMID 20149798
Conditions: ref [40]; read-out: Kd with HsCYP51, previously reported; cited from earlier work

Compound: CC(=O)N1CCN(c2ccc(OCC3COC(Cn4ccnc4)(c4ccc(Cl)cc4Cl)O3)cc2)CC1 (stereo not shown) [ketoconazole, reference compound]
- Kd: ~180 nM
